Series [1] has as its target isolated recombinant JAK2 kinase domain (Homo sapiens (Human), UniProt O60674). The series is described as follows: JAK2 enzyme assay (Caliper LabChip, peptide phosphorylation). The format is biochemical. The settings on record: 25 μM ATP.
For series [2], the system named is JAK1-dependent STAT6 phosphorylation downstream of IL-13 stimulation in TF-1 human erythroleukemia cells. In words: JAK1 pathway assay in TF-1 cells (IL-13-pSTAT6, MSD). The format is cell-based. The settings on record: Homo sapiens, TF-1, TF-1 cells, read-out: IL13-pSTAT6 EC50_TF-1. An outline of the steps: (§1)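 Compound preincubation lasted 1 hr for BEAS-2B cells in complete growth medium and 30 min for GM-CSF-starved TF-1 cells in serum-free medium. EC50 values were determined.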

Series [3] concerns JAK1-dependent STAT6 phosphorylation downstream of IL-13 stimulation in BEAS-2B human bronchial epithelial cells. The series is described as follows: JAK1 pathway assay in BEAS-2B cells (IL-13-pSTAT6, MSD). The format is cell-based. To be noted: read-out: IL13-pSTAT6 EC50 (uM)_BEAS-2B. Put shortly: as §1
A short description of series [4]: Clearance assay: mouse intravenous (IV) clearance. To be noted: female BALB/c mice; for IV Mouse CL, % of liver blood flow: single IV dose of 1 mg/kg, clearance as % of mouse liver blood flow; for clearance: mouse, plasma, single IV dose of 1 mg/kg via the tail vein, read-out: IV Mouse CL. The format is in vivo. The text has this: In certain instances high systemic clearance of a drug substance may be of benefit. For example, in the treatment of pulmonary diseases it may be beneficial to have high drug concentrations in the lung, with lower concentrations in the bloodstream or peripheral organs. In such cases, it may be advantageous to administer a drug substance with high systemic clearance via the inhaled delivery route. This approach may maximize pharmacologic activity of the drug substance in the lung while minimizing the possibility of on-target toxicity elsewhere in the body. The functional groups appended to the 5-chloro-2-difluoromethoxyphenyl pyrazolopyrimidine scaffold affect systemic clearance.
Female BALB/c mice were obtained from Charles River Labs (Hollister, Calif. USA). Twelve animals were given a single IV dose of 1 mg/kg of compounds via the tail vein. A representative dose solution was prepared as follows: the compound was dissolved in a mixture of 5% dimethylsulfoxide (DMSO), 35% polyethylene glycol (PEG 400), and 60% water (v/v/v), respectively, and administered at a dosing volume of 5 mL/kg. Mice weighed approximately 20-25 g at the start of the study. After intravenous administration of compounds, each animal was bled twice via retro-orbital and cardiac puncture. PK time points were collected at 2 min, 5 min, 15 min, 30 min, 1 hr, 2 hr, 4 hr, and 8 hr post-dose. Plasma samples were stored at approximately −80° C. until thawed for LC-MS/MS analysis. PK data analysis was performed on mean plasma concentration-time data and PK parameters were determined by non compartmental methods using WinNonlin® Enterprise, version 5.2.1 (Pharsight Corporation; Mountain View, Calif.).

Series [5] has as its target isolated recombinant JAK1 kinase domain (Homo sapiens (Human), UniProt P23458). The series is described as follows: JAK1 enzyme assay (Caliper LabChip, peptide phosphorylation). The format is biochemical. To be noted: isolated recombinant JAK1 kinase domain, 25 μM ATP.

Some results are limits rather than exact numbers.

For orientation: Ki means a measure of affinity in units of concentration, obtained from inhibition or displacement.

Chain of isolated recombinant JAK1 kinase domain (P23458 875-1153): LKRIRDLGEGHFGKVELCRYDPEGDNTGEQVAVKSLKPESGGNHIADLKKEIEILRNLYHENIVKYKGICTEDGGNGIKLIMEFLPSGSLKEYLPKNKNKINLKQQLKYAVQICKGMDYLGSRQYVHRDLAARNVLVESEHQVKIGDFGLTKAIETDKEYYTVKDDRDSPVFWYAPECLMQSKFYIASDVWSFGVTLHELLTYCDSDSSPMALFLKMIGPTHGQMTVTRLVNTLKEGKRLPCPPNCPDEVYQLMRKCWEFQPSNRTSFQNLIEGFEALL
Chain of isolated recombinant JAK2 kinase domain (O60674 849-1124): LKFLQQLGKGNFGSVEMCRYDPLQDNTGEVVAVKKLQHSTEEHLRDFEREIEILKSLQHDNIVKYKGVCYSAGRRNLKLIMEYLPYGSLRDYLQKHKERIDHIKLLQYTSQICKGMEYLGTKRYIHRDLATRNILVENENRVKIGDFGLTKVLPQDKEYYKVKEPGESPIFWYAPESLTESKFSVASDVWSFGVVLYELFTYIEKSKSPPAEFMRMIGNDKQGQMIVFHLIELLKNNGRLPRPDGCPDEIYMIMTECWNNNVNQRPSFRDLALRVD

On to `Nc1nn2cccnc2c1C(=O)Nc1cn(C2CCNCC2)nc1-c1cc(Cl)ccc1OC(F)F` [Example 2, 2-Amino-pyrazolo[1,5-a]pyrimidine-3-carboxylic acid [3-(5-chloro-2-difluoromethoxy-phenyl)-1-piperidin-4-yl-1H-pyrazol-4-yl]-amide], for which the Ki was 0.19 nM in series [1] and 0.72 nM in series [5]. The figures for the EC50 in series [2] and in series [3] were 5.2 nM and 0.0195 µM, respectively. The “IV Mouse CL, % of liver blood flow” value in series [4] is reported as greater than 100%. Also, the clearance in series [4] came to 580 mL/min/kg.

As to `CN1C[C@@H]2CN(C(=O)Cn3cc(NC(=O)c4cnn5cccnc45)c(-c4cc(Cl)ccc4OC(F)F)n3)C[C@@H]2C1` [Example 3, Cis-pyrazolo[1,5-a]pyrimidine-3-carboxylic acid {3-(5-chloro-2-difluoromethoxyphenyl)1-[2-(5-methylhexahydropyrrolo[3,4-c]pyrrol-2-yl)-2-oxoethyl]-1H-pyrazol-4-yl}amide], the values for the Ki in series [1] and in series [5] were 0.81 nM and 0.79 nM, respectively. Moreover, the EC50 is 16.7 nM in series [2] and 0.0324 µM in series [3]. In series [4], the “IV Mouse CL, % of liver blood flow” value was greater than 100%. Further, the clearance in series [4] is 216 mL/min/kg.

Consider `CN(CCC#N)C1CCN(C(=O)Cn2cc(NC(=O)c3cnn4cccnc34)c(-c3cc(Cl)ccc3OC(F)F)n2)CC1` [Example 63, Pyrazolo[1,5-a]pyrimidine-3-carboxylic acid [3-(5-chloro-2-difluoromethoxy-phenyl)-1-(2-{4-[(2-cyano-ethyl)-methyl-amino]-piperidin-1-yl}-2-oxo-ethyl)-1H-pyrazol-4-yl]-amide], for which the Ki was determined as 0.7 nM in series [1] and 0.34 nM in series [5]. Also, the EC50 was 5.7 nM in series [2] and 0.0122 µM in series [3]. For the same compound, the “IV Mouse CL, % of liver blood flow” value in series [4] was greater than 100%. For the same compound, the clearance in series [4] was 139 mL/min/kg.

`CN(C)C1CCN(C(=O)Cn2cc(NC(=O)c3cnn4cccnc34)c(-c3cc(Cl)ccc3OC(F)F)n2)CC1` [Example 67, N-[3-[5-chloro-2-(difluoromethoxy)phenyl]-1-[2-[4-(dimethylamino)-1-piperidyl]-2-oxo-ethyl]pyrazol-4-yl]pyrazolo[1,5-a]pyrimidine-3-carboxamide]: the results for the EC50 in series [2] and in series [3] were 14.6 nM and 0.0715 µM, respectively. Also, the “IV Mouse CL, % of liver blood flow” value in series [4] is recorded as greater than 100%. Moreover, in series [4], the clearance worked out at 205 mL/min/kg. Also, the Ki in series [5] amounted to 0.89 nM.

In the case of `CN(CCc1ccccc1)C1CCN(C(=O)Cn2cc(NC(=O)c3cnn4cccnc34)c(-c3cc(Cl)ccc3OC(F)F)n2)CC1` [Example 85, N-[3-[5-chloro-2-(difluoromethoxy)phenyl]-1-[2-[4-[methyl(2-phenylethyl)amino]-1-piperidyl]-2-oxo-ethyl]pyrazol-4-yl]pyrazolo[1,5-a]pyrimidine-3-carboxamide], the values for the Ki in series [1] and in series [5] were 1.66 nM and 0.86 nM, respectively. The EC50 worked out at 15.3 nM in series [2] and 0.1 µM in series [3]. Moreover, the “IV Mouse CL, % of liver blood flow” value in series [4] is given as 61%. For the same compound, the clearance in series [4] was determined as 55 mL/min/kg.

For the compound `CN(Cc1ccccc1)C1CCN(C(=O)Cn2cc(NC(=O)c3cnn4cccnc34)c(-c3cc(Cl)ccc3OC(F)F)n2)CC1` [Example 98, N-[1-[2-[4-[benzyl(methyl)amino]-1-piperidyl]-2-oxo-ethyl]-3-[5-chloro-2-(difluoromethoxy)phenyl]pyrazol-4-yl]pyrazolo[1,5-a]pyrimidine-3-carboxamide], the Ki is 1.81 nM in series [1] and 0.79 nM in series [5]. Besides, the EC50 in series [2] turned out to be 3.8 nM; in series [3], 0.0381 µM. In addition, in series [4], the “IV Mouse CL, % of liver blood flow” value was greater than 100%. The clearance in series [4] turned out to be 178 mL/min/kg.

For the compound `CN(CC(F)(F)F)C1CCN(C(=O)Cn2cc(NC(=O)c3cnn4cccnc34)c(-c3cc(Cl)ccc3OC(F)F)n2)CC1` [Example 99, N-[3-[5-chloro-2-(difluoromethoxy)phenyl]-1-[2-[4-[methyl(2,2,2-trifluoroethyl)amino]-1-piperidyl]-2-oxo-ethyl]pyrazol-4-yl]pyrazolo[1,5-a]pyrimidine-3-carboxamide], the Ki came out at 0.76 nM in series [1] and 0.4 nM in series [5]. The EC50 in series [2] was 1.7 nM; in series [3], 0.0305 µM. Further, the “IV Mouse CL, % of liver blood flow” value in series [4] is recorded as greater than 100%. Moreover, the clearance in series [4] came out at 234 mL/min/kg.

Regarding `CN(CC(F)(F)c1ccccc1)C1CCN(C(=O)Cn2cc(NC(=O)c3cnn4cccnc34)c(-c3cc(Cl)ccc3OC(F)F)n2)CC1` [Example 102, N-[3-[5-chloro-2-(difluoromethoxy)phenyl]-1-[2-[4-[(2,2-difluoro-2-phenyl-ethyl)-methyl-amino]-1-piperidyl]-2-oxo-ethyl]pyrazol-4-yl]pyrazolo[1,5-a]pyrimidine-3-carboxamide], the values for the Ki in series [1] and in series [5] were 1.1 nM and 0.62 nM, respectively. For the same compound, the figures for the EC50 in series [2] and in series [3] were 8.5 nM and 0.0347 µM, respectively. In series [4], the “IV Mouse CL, % of liver blood flow” value is recorded as greater than 100%. The clearance in series [4] worked out at 140 mL/min/kg.

Consider `CN(CC(C)(F)F)C1CCN(C(=O)Cn2cc(NC(=O)c3cnn4cccnc34)c(-c3cc(Cl)ccc3OC(F)F)n2)CC1` [Example 134, N-[3-[5-chloro-2-(difluoromethoxy)phenyl]-1-[2-[4-[2,2-difluoropropyl(methyl)amino]-1-piperidyl]-2-oxo-ethyl]pyrazol-4-yl]pyrazolo[1,5-a]pyrimidine-3-carboxamide], for which the Ki in series [1] was 0.69 nM; in series [5], 0.33 nM. The results for the EC50 in series [2] and in series [3] were 2.3 nM and 0.0118 µM, respectively. In addition, the “IV Mouse CL, % of liver blood flow” value in series [4] is greater than 100%. Also, in series [4], the clearance was 222 mL/min/kg.

`CN1CCN(c2nc(-c3cc(Cl)ccc3OC(F)F)c(NC(=O)c3cnn4cccnc34)s2)CC1` [Example 205, Pyrazolo[1,5-a]pyrimidine-3-carboxylic acid [4-(5-chloro-2-difluoromethoxy-phenyl)-2-(4-methyl-piperazin-1-yl)-thiazol-5-yl]-amide]: the Ki was determined as 0.58 nM in series [1] and 0.8 nM in series [5]. The EC50 in series [2] stood at 4.4 nM; in series [3], 0.0338 µM. The “IV Mouse CL, % of liver blood flow” value in series [4] amounted to 51%. For the same compound, in series [4], the clearance was found to be 46 mL/min/kg.

Turning to `CN(C)CC#Cc1nc(-c2cc(Cl)ccc2OC(F)F)c(NC(=O)c2cnn3cccnc23)s1` [Example 209, Pyrazolo[1,5-a]pyrimidine-3-carboxylic acid [4-(5-chloro-2-difluoromethoxy-phenyl)-2-(3-dimethylamino-prop-1-ynyl)-thiazol-5-yl]-amide], the Ki in series [1] came to 0.28 nM; in series [5] it was 0.78 nM. The values for the EC50 in series [2] and in series [3] were 7.4 nM and 0.0415 µM, respectively. The “IV Mouse CL, % of liver blood flow” value in series [4] is on record as 71%. Besides, in series [4], the clearance came to 64 mL/min/kg.

As to `CSCCN1CCN(C(=O)Cn2cc(NC(=O)c3cnn4cccnc34)c(-c3cc(Cl)ccc3OC(F)F)n2)CC1` [Example 372, N-[3-[5-chloro-2-(difluoromethoxy)phenyl]-1-(2-[4-[2-(methylsulfanyl)ethyl]piperazin-1-yl]-2-oxoethyl)-1H-pyrazol-4-yl]pyrazolo[1,5-a]pyrimidine-3-carboxamide], in series [1], the Ki stood at 0.51 nM. Also, the EC50 in series [3] amounted to 0.0197 µM. Moreover, in series [4], the “IV Mouse CL, % of liver blood flow” value is listed as greater than 100% and the clearance is 93 mL/min/kg. The Ki in series [5] amounted to 0.25 nM.

For the compound `CC(C)(C#N)CNC1CCN(C(=O)Cn2cc(NC(=O)c3cnn4cccnc34)c(-c3cc(Cl)ccc3OC(F)F)n2)CC1` [Example 466, N-(3-(5-chloro-2-(difluoromethoxy)phenyl)-1-(2-(4-(2-cyano-2-methyl-propylamino)piperidin-1-yl)-2-oxoethyl)-1H-pyrazol-4-yl)pyrazolo[1,5-a]pyrimidine-3-carboxamide], the Ki in series [1] was found to be 0.74 nM; in series [5], 0.27 nM. In addition, the EC50 in series [3] was 0.014 µM. The “IV Mouse CL, % of liver blood flow” value in series [4] came to 80%. The clearance in series [4] is 72 mL/min/kg.

For `N#CC1(CNC2CCN(C(=O)Cn3cc(NC(=O)c4cnn5cccnc45)c(-c4cc(Cl)ccc4OC(F)F)n3)CC2)CC1` [Example 468, N-(3-(5-chloro-2-(difluoromethoxy)phenyl)-1-(2-(4-(((1-cyanocyclopropyl)methyl)amino)piperidin-1-yl)-2-oxoethyl)-1H-pyrazol-4-yl)pyrazolo[1,5-a]pyrimidine-3-carboxamide], the Ki in series [1] came out at 0.92 nM. Moreover, the EC50 in series [3] was 0.006 µM. In series [4], the “IV Mouse CL, % of liver blood flow” value is recorded as greater than 100% and the clearance was 140 mL/min/kg. Further, the Ki in series [5] was 0.36 nM.

Source of the values: patent US9346815B2, “5-chloro-2-difluoromethoxyphenyl pyrazolopyrimidine compounds, compositions and methods of use thereof” (Genentech, Inc., priority 2014, dated 2016).
